Results: patent publication US7741283B2, “Compositions and methods for inhibiting cell proliferation” (St. Louis University, priority 2003, dated 2010)

Tests used:
[1] = system: H1299/LRP cells; assay: [methyl-3H] thymidine incorporation, H1299/LRP cells; assay type: cell-based, human; conditions: various concentrations
[2] = system: H1299/LRP cells; assay: Cell growth (cell number), H1299/LRP cells; assay type: cell-based, human; conditions: TGF-β1 20 pM or IGFBP-3 1 μg/ml, 3-day
[3] = system: DR26 cells; assay: [methyl-3H] thymidine incorporation, DR26 cells; assay type: cell-based, mink; conditions: IGFBP-3 0.5 μg/ml, DR26
Protocol: (A,B) DR26 cells were incubated with various concentrations as indicated of IGFBP-3 in the absence (A) and presence (B) of various concentrations of insulin. After 18 hr at 37° C., the [methyl-^3H] thymidine incorporation into cellular DNA was determined. (C,D,E) Mv1Lu, DR26 and R1B cells metabolically labeled with ^[…]-orthophosphate for 2 hr were treated with IGFBP-3 (1:g/ml) or insulin (10 nM) (C). DR26 cells metabolically labeled with ^[…]-orthophosphate for 2 hr were treated with or without IGFBP-3 (1 μg/ml) in the presence of various concentrations of TGF-β1 as indicated (D). Mv1Lu cells expressing αIβI and αIβII chimeric receptors (MB102-16 and MB102-9 cells, respectively) metabolically labeled with ^[…]-orthophosphate for 2 hr were treated with or without IGFBP-3 (1 μg/ml) or GM-CSF (1 nM) (E). After 2 hr at 37° C. (in the absence of […]-orthophosphate in the medium), the ^[…]-labeled IRS-2 was immunoprecipitated and analyzed by 7.5% SDS-PAGE and autoradiography. […]
Mv1Lu cells were plated on 24-well clustered dishes and incubated with various concentrations of TGF-β1 or IGFBP-3 in DMEM containing 0.1% fetal calf serum. After incubation at 37° C. for 18 hr, the cells were pulse-labeled with 1 μCi of [methyl-^3H]thymidine at 37° C. for 2 hr and the [methyl-^3H] thymidine incorporation into cellular DNA was determined as described previously (59). […]

[4] = system: IRS-2; assay: 32P metabolic labeling and immunoprecipitation of IRS-2, DR26 cells; assay type: cell-based, mink; conditions: IGFBP-3 1 μg/ml
[5] = biological target: TβR-V/IGFBP-3 receptor; conditions: Mv1Lu cells; read-out: Kd of IGFBP-3 binding to its receptor; cited from earlier work
[6] = system: IRS-2; assay: 32P metabolic labeling and immunoprecipitation of IRS-2, MB102-16 cells; assay type: cell-based, mink; conditions: MB102-16 cells (αIβI); IGFBP-3 1 μg/ml, GM-CSF 1 nM
[7] = system: PEA-13 cells; assay: Cell growth (cell number), PEA-13 cells; assay type: cell-based, mouse; conditions: IGFBP-3 up to 1 μg/ml
Protocol: FIG. 7 depicts the effect of TGF-β1 on DNA synthesis (A), cell growth (B) and PAI-1 expression (C) in MEF and PEA-13 cells. (A) Cells were treated with various concentrations of TGF-β1 as indicated. DNA synthesis was determined by measuring [methyl-^3H] thymidine incorporation into cellular DNA. The [methyl-^3H] thymidine incorporation in cells treated without TGF-β1 (100,861±3,720 and 103,262±6,722 cpm/well for MEF and PEA-13 cells, respectively) was taken as 0% inhibition. The negative values of inhibition indicate mitogenic activity. […] Each datapoint is the mean±S.D. of quadruplicate determinations. […] Data are representative of six similar experiments. (B) Cells were treated with various concentrations of TGF-β1 as indicated. The cell number was counted after a 4 day incubation. […] The negative values of the inhibition indicate the growth stimulatory activity. Each datapoint is the mean±S.D. of quadruplicate determinations. […] Data are representative of four similar experiments. (C) Cells were treated with various concentrations of TGF-β1 as indicated. The PAI-1 expression in these cells was determined by Northern blot analysis. […] The relative levels of the transcripts were quantified by a PhosphoImager. […]
Cells were plated at a density of 1-2×10^4 cells/dish in DMEM containing 1% fetal calf serum. The cell number was counted every day or after a 3-day incubation using a hematocytometer. […]

[8] = system: Mv1Lu cells; assay: Cell growth (cell number), Mv1Lu cells; assay type: cell-based, mink; conditions: IGFBP-3 0.5 μg/ml, 4-day
Protocol: FIG. 6 depicts the effects of IGFBP-3 and TGF-β1 on DNA synthesis (A), cell growth (B) and PAI-1 expression (C) in Mv1Lu and PEA-C11 cells. (A,B) Cells were incubated with various concentrations of IGFBP-3 (a) or TGF-β1 (b) as indicated. DNA synthesis and cell growth were determined by measuring the [methyl-^3H] thymidine incorporation into cellular DNA after 18 hr incubation (A) and by counting cell number after a 4-day incubation (B), respectively. The [methyl-^3H] thymidine incorporation in cells treated without IGFBP-3 and TGF-β1 (29,170±1,657 and 59,947±7,692 cpm/well for Mv1Lu and PEA-C11 cells, respectively) were taken as 0% inhibition. […] Each data point is the mean±S.D. of quadruplicate determinations. […] Data are representative of eight similar experiments. (C) Cells were incubated with various concentrations of TGF-β1 as indicated. After 2 hr at 37° C., the PAI-1 expression was determined by Northern blot analysis. The expression of glyceraldehyde-3-phosphate dehydrogenase (G3PDH) was used as control. The relative levels of the transcripts were quantified by a Phospholmager. Data are representative of four similar experiments.
Cells were plated at a density of 1-2×10^4 cells/dish in DMEM containing 1% fetal calf serum. The cell number was counted every day or after a 3-day incubation using a hematocytometer. The assays were performed in quadruplicate.

[9] = system: IRS-2; assay: 32P metabolic labeling and immunoprecipitation of IRS-2, Mv1Lu cells; assay type: cell-based, mink

IGFBP-3: human insulin-like growth factor binding protein-3 expressed in E. Coli
Effect on DNA synthesis [1]: inhibited
Effect on cell growth [2]: inhibited
Inhibition of DNA synthesis [3]: ~80%
Electrophoretic mobility change of IRS-2 compared with Mv1Lu and R1B cells [4]: induced a greater increase in electrophoretic mobility
Kd [5]: 6 nM
Specific dephosphorylation (mobility change) of IRS-2 [6]: induced specific dephosphorylation
Effect on cell growth [7]: did not appear to have a significant effect
Inhibition of cell growth [8]: ~70%
Incubation time after which mobility change of 32P-labeled IRS-2 occurred ([9]; IGFBP-3 1 μg/ml, Mv1Lu): 0.5 h
Half-optimal concentration (ED50) to induce electrophoretic mobility change of 32P-labeled IRS-2 ([9]; Mv1Lu cells): 0.1 to 0.3 µg/mL
Induction of specific dephosphorylation (mobility change) of 32P-labeled IRS-2 ([9]; Mv1Lu, IGFBPs 1 μg/ml, TGF-β1 20 pM): induces specific dephosphorylation
